Laboratory results reported in patent US11098062B2, “Monocyclic and bicyclic ring system substituted carbanucleoside analogues for use as PRMT5 inhibitors” (Janssen Pharmaceutica NV, priority 2016, dated 2021).

Experiments:
[1] = target: T1, PRMT5-MEP50 enzyme (Homo sapiens, UniProt O14744); experiment: In vitro assay 1b: PRMT5-MEP50 high throughput mass spectrometer assay (SAH formation), 1.25 nM enzyme; assay type: biochemical; conditions: 1.25 nM enzyme, 1 μM SAM, 0.3 μM H2A, 30° C., 120 min; averaged values; read-out: pIC50 Assay 1b (converted)
T1 construct: One virus expresses full length human PRMT5 with Flag-tag at N-terminus; Flag (N); purchased Charles River (Argenta); host or cells: insect cells (Sf9), baculovirus co-infection
Source text: (§1) Experimental Procedures In Vitro Assay (Assay 1a and 1b)
(§2) PRMT5-MEP50 enzyme was purchased from Charles River (Argenta). The enzyme complex was produced in insect cells (Sf9) infected simultaneously with two baculoviruses. One virus expresses full length human PRMT5 with Flag-tag at N-terminus, the second virus expresses full length MEP50 with His6-TEV cleavage at N-terminus. The protein was affinity purified using anti-Flag (M2) beads eluted with 3×FLAG peptide, followed by His-Select eluted with 0.5M imidazole. Eluted protein was then dialysed against tris-buffered saline (TBS) (pH 8.0) containing 20% glycerol and 3 mM dithiothreitol (DTT).
(§3) Full-length untagged human recombinant histone H2A (residues 1-130, Genbank Accession #NM_021052, MW=14.1 kDa) expressed in E. coli was purchased from Reaction Biology Corporation, Cat #HMT-11-146. Reagents used for making reaction buffer or stopping reaction were purchased including Tris base (Sigma Cat #T-1503), NaCl (Sigma Cat #RGF-3270), MgCl2 (Sigma Cat #M0250), DTT (Invitrogen Cat #15508-013) and Formic Acid (Riedel deHaen, Cat #33015)
(§4) PRMT5 catalyzes the sequential methylations of the terminal nitrogen atoms on the guanidine groups of arginine residues within proteins using co-substrate S-adenosyl-L-methionine (AdoMet, SAM), forming mono-methyl (MMA), syrmmetric-dimethyl arginine (sDMA) and S-adenosyl-L-homocysteine (AdoHcy, SAH). The enzyme activity was determined by following the product SAH formation using high throughput mass spectrometry (Agilent Rapidfire 300 System coupled to a Sciex 4000 series QTrap® triple-quad MS/MS). The reaction buffer was 20 mM Tris-HCl, pH 8.5, 50 mM NaCl, 5 mM MgCl2 and 1 mM DTT. The reaction activity was stopped using 1% formic acid (final concentration).
(§5) The IC50 Studies were performed using eleven point dosing series made for each compound by serially diluted 1:2 in dimethyl sulfoxide (DMSO), with point 12 being a DMSO control. Compounds were first spotted to plates, and followed by addition of 2 μM SAM and 0.6 μM H2A (histone H2A) solution mixture. The same volume of enzyme solution was added to initiate the enzymatic reactions. The final concentrations of the reaction are at 1 μM SAM, 0.3 μM H2A and 10 nM enzyme (assay 1a) or or 1.25 nM enzyme (assay 1b). The reaction was incubated at 30° C. for 60 minutes (min) when 10 nM enzyme was used and for 120 min when 1.25 nM enzyme was used. Subsequently, the reaction was quenched by addition of formic acid to a final concentration of 1%. The inhibitions of SAH formation in the presence of compounds were calculated as a percentage of the control relative to the uninhibited reaction as a function of inhibitor concentration. The data were fit as follows: Y=Bottom+(Top−Bottom)/(1+10^((log IC50−X)*h))
(§6) where IC50 is the inhibitor concentration (same unit as X) at 50% inhibition and h is the Hill slope. Y is percent of inhibition, X is log of compound concentration. Bottom and Top are the plateaus in same units as Y.

[2] = test system: nuclear symmetric Arginine dimethylation in A549 cells; experiment: PD assay (assay 2): inhibition of nuclear symmetric Arginine dimethylation (SYM10 immunostaining) in A549 cells; assay type: cell-based; conditions: Homo sapiens, 48 h incubation, SYM10 antibody, averaged values, read-out: pIC50 Assay 2 (converted)
Description: Experimental Procedure PD Assay (Assay 2)
A549 cells (ATCC, Cat #CCL-185) were cultured in Dulbecco's Modified Eagle's Medium (DMEM) (Sigma, Cat #D5796), supplemented with 10% Fetal Calf Serum (FCS) (HyClone™, Cat #SV30160.03), 100 mM Sodium Pyruvate (Sigma, Cat #S8636), 200 mM L-Glutamine (Sigma, Cat #G7513) and 50 mg/mL Gentamycing (Gibco, Cat #15750-037).
Reagents used for buffers were purchased: Dulbecco's phosphate buffered saline (DPBS) without Ca/Mg (Sigma, Cat #D8537), phosphate buffered saline (PBS) 10× (Roche, Cat #11 666 789 001), Formalin solution 10% (Sigma, HT50-1-128-4L), Methanol 100% (Sigma, Cat #32213-2.5L), Triton X-100 (Acros, Cat #215680010), Bovine Serum Albumin (BSA) (Sigma, Cat #A2153), Alexa fluor 488 goat anti-rabbit antibody (Life Technologies, Cat #A11034), HCS CellMask Deep Red Stain (Life Technologies, Cat #H32721), Hoechst Stain (Life Technologies, Cat #33258), Anti-dimethyl-Arginine, sym (SYM10) antibody (Millipore, 07-412).
Cells were plated at 400 cells/40 μL/well in 384 well black μplates clear bottom (Perkin Elmer) and overnight incubated at 37° C., 5% CO2. The IC50 Studies were performed using nine point dosing series ranging from 10 μM to […] for each compound. 80 nL of the respective dilution of the compounds was added using the Labcyte POD 810 (Labcyte) reaching a final DMSO concentration of 0.2% in cell culture. After an incubation period of 48 h at 37° C. and 5% CO2, cells were fixed in 10% formalin solution for 15 min at room temperature and 20 min in ice-cold methanol, after which they were washed 3× in DPBS. Subsequently, the cells were blocked for 1 h in blocking buffer (PBS+1% BSA and 0.5% Triton X-100) and incubated overnight at 4° C. with the SYM10 antibody diluted 1/2000 in blocking buffer. The cells were washed 3× with washing buffer (PBS+0.1% Triton X-100) and incubated with the Alexa fluor 488 goat anti-rabbit antibody diluted 1/200 in blocking buffer for 1 h at room temperature. Subsequently, they were washed 3× with washing buffer and incubated for 30 min at room temperature with PBS containing a 1/5000 dilution of Hoechst Stain and a 1/5000 dilution of the HCS CellMask Deep Red Stain. After a final wash with PBS, the plates were imaged using the 10×W lens of the Opera® system (Perkin Elmer Life Sciences) using following settings (values in nm):
Low control: minimum level of symmetrically dimethylated Arginines (cells treated with reference compound at 10 μM).
High control: maximum level of symmetrically dimethylated Arginines (DMSO treated cells).
IC50 and pIC50 (−log IC50) values were calculated using the appropriate software.
The pIC50 values in the Table below are averaged values (Co. No. means compound number; n.d. means not determined).

[3] = target: T1, PRMT5-MEP50 enzyme; experiment: In vitro assay 1a: PRMT5-MEP50 high throughput mass spectrometer assay (SAH formation), 10 nM enzyme; assay type: biochemical; conditions: 1 μM SAM, 0.3 μM H2A, 30° C., 60 min, averaged values, read-out: pIC50 Assay 1a (converted)
Source text: as §1, §2, §3, §4, §5, §6

[4] = test system: MCL xenograft models; conditions: multiple MCL xenograft models; cited from earlier work
[5] = target: PRMT5 (Homo sapiens, UniProt O14744); conditions: background statement; cited from earlier work
PRMT5, sequence (O14744 whole entry, species assumed): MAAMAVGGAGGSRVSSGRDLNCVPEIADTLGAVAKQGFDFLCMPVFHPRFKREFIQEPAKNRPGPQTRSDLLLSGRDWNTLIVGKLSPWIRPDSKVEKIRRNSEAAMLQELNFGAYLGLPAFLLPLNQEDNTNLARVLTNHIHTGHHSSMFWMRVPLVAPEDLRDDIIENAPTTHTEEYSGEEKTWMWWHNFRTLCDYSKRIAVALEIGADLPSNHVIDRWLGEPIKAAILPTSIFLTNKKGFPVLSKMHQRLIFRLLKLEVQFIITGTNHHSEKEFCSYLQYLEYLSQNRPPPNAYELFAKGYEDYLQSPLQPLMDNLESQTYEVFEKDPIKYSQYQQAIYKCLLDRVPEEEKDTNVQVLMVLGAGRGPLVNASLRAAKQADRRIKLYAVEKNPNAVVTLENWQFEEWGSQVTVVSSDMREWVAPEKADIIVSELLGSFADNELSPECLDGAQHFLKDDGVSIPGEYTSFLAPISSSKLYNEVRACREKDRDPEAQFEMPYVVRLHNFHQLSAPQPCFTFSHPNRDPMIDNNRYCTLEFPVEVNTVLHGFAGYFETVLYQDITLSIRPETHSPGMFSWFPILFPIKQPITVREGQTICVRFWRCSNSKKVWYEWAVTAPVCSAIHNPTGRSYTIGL
PRMT5, sequence (Q9BQA1 whole entry partner, species assumed): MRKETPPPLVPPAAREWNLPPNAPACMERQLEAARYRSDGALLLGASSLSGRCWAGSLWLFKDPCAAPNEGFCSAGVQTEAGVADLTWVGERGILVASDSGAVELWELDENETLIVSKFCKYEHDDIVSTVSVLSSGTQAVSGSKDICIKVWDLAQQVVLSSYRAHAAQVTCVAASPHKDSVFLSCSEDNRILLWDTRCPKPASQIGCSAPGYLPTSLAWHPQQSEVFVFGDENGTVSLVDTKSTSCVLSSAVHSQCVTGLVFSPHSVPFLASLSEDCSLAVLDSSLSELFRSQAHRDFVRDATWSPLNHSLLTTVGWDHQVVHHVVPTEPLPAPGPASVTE

T1 sequence (O14744 whole entry): as the sequence (O14744 whole entry, species assumed) above
T1 sequence (Q9BQA1 whole entry partner): as the sequence (Q9BQA1 whole entry partner, species assumed) above

Structure (SMILES) | IC50 [1] [nM] | IC50 [2] [nM] | IC50 [3] [nM] | anti-tumour activity [4] | PRMT5 inhibitor potency [5]
Nc1ncnc2c1ccn2[C@@H]1C[C@H](CCc2ccn3c(Cl)cnc3c2)[C@@H](O)[C@H]1O [Compound 13] | 1.26 | 20 | 2 | – | –
Nc1ncnc2c1ccn2[C@@H]1C[C@H](CCc2ccn3c(Br)cnc3c2)[C@@H](O)[C@H]1O [Compound 14] | 1.58 | 12.6 | 1.26 | – | –
O=C(NC[C@H](O)CN1CCc2ccccc2C1)c1cc(NC2COC2)ncn1 [EPZ015666] | – | – | – | anti-tumour activity in multiple MCL xenograft models | sub-nanomolar potent
Cc1cnc2cc(CC[C@H]3C[C@@H](n4ccc5c(N)ncnc54)[C@H](O)[C@@H]3O)ccn12 [Compound 1] | – | 1.26 | 0.794 | – | –
